Experimental findings from publication PMC4048267, “Purification and Characterization of a Novel and Robust L-Asparaginase Having Low-Glutaminase Activity from Bacillus licheniformis: In Vitro Evaluation of Anti-Cancerous Properties” (PLoS ONE, 2014) are described below.

One may read the Km as the concentration of substrate that gives half-maximal velocity.

This test has as its system T1, L-asparaginase from Bacillus licheniformis RAM-8.
T1 construct: gene L-asparagine amidohydrolase
Particulars: 25 °C; L-asparagine 2 to 20 mM; assay buffer 50 mM Tris-HCl pH 8.6.

As to `NC(=O)C[C@H](N)C(=O)O` [L-asparagine], the Km amounted to 14 µM.
